Experimental data reported in ChEMBL document CHEMBL4811264, “Design and synthesis of novel diosgenin-triazole hybrids targeting inflammation as potential neuroprotective agents” (Bioorg Med Chem Lett, 2021).

Columns and labels:
SH-SY5Y [1] = assay: Neuroprotective activity against oxygen glucose-deprivation induced toxicity in human SH-SY5Y cells at 10 uM relative to control; type: functional
RAW264.7 [2] = assay: Antiinflammatory activity in mouse RAW264.7 cells assessed as inhibition of LPS-induced NO production at 10 uM relative to control; type: functional
RAW264.7 [3] = assay: Cytotoxicity against mouse RAW264.7 cells assessed as decrease in cell viability by MTT assay; type: cell-based
SH-SY5Y [4] = assay: Neuroprotective activity against oxygen glucose-deprivation induced toxicity in human SH-SY5Y cells at […] relative to control; type: functional

Row | SMILES | Activity (SH-SY5Y [1]) | inhibition at 10 µM (RAW264.7 [2]) | Activity (RAW264.7 [3]) | Activity (SH-SY5Y [4])
1 | C[C@@H]1CC[C@@]2(OC1)O[C@H]1C[C@H]3[C@@H]4CCc5cc(OCc6cn(-c7cc(F)cc(F)c7)nn6)ccc5[C@H]4CC[C@]3(C)[C@H]1[C@@H]2C | 71.4% |  |  | 
2 | C[C@@H]1CC[C@@]2(OC1)O[C@H]1C[C@H]3[C@@H]4CCc5cc(OCc6cn(Cc7cccc(F)c7)nn6)ccc5[C@H]4CC[C@]3(C)[C@H]1[C@@H]2C | 51.6% | 30.6% |  | 
3 | C[C@@H]1CC[C@@]2(OC1)O[C@H]1C[C@H]3[C@@H]4CCc5cc(OCc6cn(Cc7ccc(C#N)cc7)nn6)ccc5[C@H]4CC[C@]3(C)[C@H]1[C@@H]2C | 57.6% | 11.9% |  | 
4 | COc1ccc2c(c1)c(CC(=O)O)c(C)n2C(=O)c1ccc(Cl)cc1 [INDOMETHACIN] |  | 34.9% |  | 
5 | CCCn1cc(COc2ccc3c(c2)CC[C@@H]2[C@@H]3CC[C@]3(C)[C@@H]4[C@H](C[C@@H]23)O[C@]2(CC[C@@H](C)CO2)[C@H]4C)nn1 | 73.9% |  |  | 
6 | C[C@@H]1CC[C@@]2(OC1)O[C@H]1C[C@H]3[C@@H]4CCc5cc(OCc6cn(Cc7ccc(F)cc7)nn6)ccc5[C@H]4CC[C@]3(C)[C@H]1[C@@H]2C | 50.7% | 19.7% |  | 
7 | C[C@@H]1CC[C@@]2(OC1)O[C@H]1C[C@H]3[C@@H]4CCc5cc(OCc6cn(-c7ccccc7C#N)nn6)ccc5[C@H]4CC[C@]3(C)[C@H]1[C@@H]2C | 81.2% |  | Toxic | 
8 | CC(=O)N[C@@H](CS)C(=O)O [ACETYLCYSTEINE] |  |  |  | 84.3%
9 | C[C@@H]1CC[C@@]2(OC1)O[C@H]1C[C@H]3[C@@H]4CCc5cc(OCc6cn(Cc7ccccc7F)nn6)ccc5[C@H]4CC[C@]3(C)[C@H]1[C@@H]2C | 12.1% | 14.2% |  | 
10 | Cc1ccc(Cn2cc(COc3ccc4c(c3)CC[C@@H]3[C@@H]4CC[C@]4(C)[C@@H]5[C@H](C[C@@H]34)O[C@]3(CC[C@@H](C)CO3)[C@H]5C)nn2)cc1 | 34.1% | 35.6% |  | 
11 | C[C@@H]1CC[C@@]2(OC1)O[C@H]1C[C@H]3[C@@H]4CCc5cc(OCc6cn(Cc7ccc(C(F)(F)F)cc7)nn6)ccc5[C@H]4CC[C@]3(C)[C@H]1[C@@H]2C | 66.4% | 9.5% |  | 
12 | COc1ccc(Cn2cc(COc3ccc4c(c3)CC[C@@H]3[C@@H]4CC[C@]4(C)[C@@H]5[C@H](C[C@@H]34)O[C@]3(CC[C@@H](C)CO3)[C@H]5C)nn2)cc1 | 73.9% | 40.4% |  | 
13 | C[C@@H]1CC[C@@]2(OC1)O[C@H]1C[C@H]3[C@@H]4CCc5cc(OCc6cn(Cc7cc(F)c(F)cc7F)nn6)ccc5[C@H]4CC[C@]3(C)[C@H]1[C@@H]2C | 16.5% |  |  | 
14 | Cc1ccc(-n2cc(COc3ccc4c(c3)CC[C@@H]3[C@@H]4CC[C@]4(C)[C@@H]5[C@H](C[C@@H]34)O[C@]3(CC[C@@H](C)CO3)[C@H]5C)nn2)cc1 | 3.3% |  |  | 
15 | C[C@@H]1CC[C@@]2(OC1)O[C@H]1C[C@H]3[C@@H]4CCc5cc(OCc6cn(Cc7ccccc7)nn6)ccc5[C@H]4CC[C@]3(C)[C@H]1[C@@H]2C | 35.5% | 23.5% |  | 
16 | COc1ccc(-n2cc(COc3ccc4c(c3)CC[C@@H]3[C@@H]4CC[C@]4(C)[C@@H]5[C@H](C[C@@H]34)O[C@]3(CC[C@@H](C)CO3)[C@H]5C)nn2)cc1 | 40.1% | 9.9% |  | 
17 | C[C@@H]1CC[C@@]2(OC1)O[C@H]1C[C@H]3[C@@H]4CC=C5C[C@@H](O)CC[C@]5(C)[C@H]4CC[C@]3(C)[C@H]1[C@@H]2C [DISOGENIN] | 3.5% | 5.9% |  | 
18 | C[C@@H]1CC[C@@]2(OC1)O[C@H]1C[C@H]3[C@@H]4CCc5cc(OCc6cn(-c7ccccc7)nn6)ccc5[C@H]4CC[C@]3(C)[C@H]1[C@@H]2C | 12.1% |  |  | 
